Molecular target: T1, Solute carrier family 12 member 5 (Homo sapiens, UniProt Q9H2X9)
T1 sequence (Q9H2X9 whole entry): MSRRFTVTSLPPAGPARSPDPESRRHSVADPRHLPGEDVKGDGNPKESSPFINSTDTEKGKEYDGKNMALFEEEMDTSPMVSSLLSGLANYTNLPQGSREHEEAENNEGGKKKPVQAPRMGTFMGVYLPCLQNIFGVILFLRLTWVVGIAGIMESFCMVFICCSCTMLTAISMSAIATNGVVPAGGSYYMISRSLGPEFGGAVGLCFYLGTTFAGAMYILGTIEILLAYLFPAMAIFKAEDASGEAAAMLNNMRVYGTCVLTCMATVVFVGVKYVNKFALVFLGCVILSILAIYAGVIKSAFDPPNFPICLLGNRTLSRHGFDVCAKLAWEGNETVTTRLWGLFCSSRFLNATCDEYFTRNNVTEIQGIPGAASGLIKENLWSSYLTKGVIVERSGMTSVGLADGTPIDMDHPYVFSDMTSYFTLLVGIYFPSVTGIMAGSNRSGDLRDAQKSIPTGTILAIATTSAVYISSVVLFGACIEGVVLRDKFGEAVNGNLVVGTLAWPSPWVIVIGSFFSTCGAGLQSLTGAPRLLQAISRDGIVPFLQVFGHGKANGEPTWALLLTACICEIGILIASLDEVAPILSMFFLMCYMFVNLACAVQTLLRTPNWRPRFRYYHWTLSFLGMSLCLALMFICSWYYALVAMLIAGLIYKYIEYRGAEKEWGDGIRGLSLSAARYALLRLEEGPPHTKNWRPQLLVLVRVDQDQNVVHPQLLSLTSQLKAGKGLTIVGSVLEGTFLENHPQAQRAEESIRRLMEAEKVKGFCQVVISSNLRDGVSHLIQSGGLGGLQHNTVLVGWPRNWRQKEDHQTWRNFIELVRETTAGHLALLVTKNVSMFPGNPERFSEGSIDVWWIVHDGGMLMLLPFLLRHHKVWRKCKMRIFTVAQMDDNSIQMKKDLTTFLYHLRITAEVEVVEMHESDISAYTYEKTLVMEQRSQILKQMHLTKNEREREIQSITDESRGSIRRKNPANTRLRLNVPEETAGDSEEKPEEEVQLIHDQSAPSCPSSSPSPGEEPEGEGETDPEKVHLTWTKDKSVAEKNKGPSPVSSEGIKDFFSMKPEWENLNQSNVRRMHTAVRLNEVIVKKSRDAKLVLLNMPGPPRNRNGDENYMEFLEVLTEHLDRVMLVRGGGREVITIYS
Experiment: concentration-response of KCC2 transport modulators – cell-based, HEK293 KCC2, FluoZin-2 fluorescence, dose response (AID 1736)

[1] = inactive by the depositor's call

| EC50 | EC50 [1] | SMILES |
| --- | --- | --- |
| 10.7 µM | – | Cc1ccc(C(=O)O)cc1-c1ccc(C=C2NC(=O)N(c3ccccc3)C2=O)o1 [3-[5-[(E)-(2,5-dioxo-1-phenylimidazolidin-4-ylidene)methyl]furan-2-yl]-4-methylbenzoic acid] |
| 86000 µM | – | O=C(O)CCN(Cc1ccccc1)S(=O)(=O)c1c(Cl)cccc1Cl [3-[(2,6-dichlorophenyl)sulfonyl-(phenylmethyl)amino]propanoic acid] |
| 2.69 µM | – | Cc1ccc(S(=O)(=O)N(CCC(=O)O)Cc2ccc(Cl)cc2)cc1 [3-[(4-chlorobenzyl)-tosyl-amino]propionic acid] |
| 4.5 µM | – | Fc1ccc(CSc2nncn2NC/C=C/c2ccccc2)cc1 [3-[(4-fluorobenzyl)thio]-N-(3-phenyl-2-propen-1-yl)-4H-1,2,4-triazol-4-amine] |
| 6.01 µM | – | CC1(CCc2ccccc2)NC(=O)N(Cc2nnc(-c3ccccc3Br)o2)C1=O (centres undefined) [3-[[5-(2-bromophenyl)-1,3,4-oxadiazol-2-yl]methyl]-5-methyl-5-(2-phenylethyl)imidazolidine-2,4-dione] |
| 1.6 µM | – | O=C(OCC(=O)N1CCN(C(=O)c2ccco2)CC1)c1sc2ccccc2c1Cl [3-chloro-1-benzothiophene-2-carboxylic acid [2-[4-[2-furanyl(oxo)methyl]-1-piperazinyl]-2-oxoethyl] ester] |
| 5.41 µM | – | CCOc1cc(S(=O)(=O)NCc2ccccc2)ccc1F [3-ethoxy-4-fluoranyl-N-(phenylmethyl)benzenesulfonamide] |
| – | 4.51 µM | O=C(Nc1ccn(Cc2ccccc2)n1)c1cccc(F)c1 [3-fluoranyl-N-[1-(phenylmethyl)pyrazol-3-yl]benzamide] |
| 15.8 µM | – | C=C(C)Cn1c(N2CCC(Cc3ccccc3)CC2)nc2c1c(=O)[nH]c(=O)n2C [3-methyl-7-(2-methylprop-2-enyl)-8-[4-(phenylmethyl)-1-piperidinyl]purine-2,6-dione] |
| 3.27 µM | – | COCCNS(=O)(=O)c1ccc(-c2ccc(Cl)cc2)cc1 [4'-chloro-N-(2-methoxyethyl)-4-biphenylsulfonamide] |
| 0.733 µM | – | Cc1c(N=C2Nc3cccc4cccc2c34)c(=O)n(-c2ccccc2)n1C [4-(2-benzo[cd]indolylamino)-1,5-dimethyl-2-phenyl-3-pyrazolone] |
| 11.5 µM | – | O=C(OCC(=O)N1CCc2ccccc2C1)c1ccc(N2CCOCC2)c([N+](=O)[O-])c1 [4-(4-morpholinyl)-3-nitrobenzoic acid [2-(3,4-dihydro-1H-isoquinolin-2-yl)-2-oxoethyl] ester] |
| 9.74 µM | – | O=C(NC(=S)NNC(=O)c1cnccn1)c1ccc(Cl)cc1 [4-Chloro-N-[N'-(pyrazine-2-carbonyl)-hydrazinocarbothioyl]-benzamide] |
| 17.9 µM | – | O=C(c1cc(COc2c(F)cccc2F)on1)N1CCC(c2ccncc2)CC1 [4-[1-({5-[(2,6-difluorophenoxy)methyl]isoxazol-3-yl}carbonyl)piperidin-4-yl]pyridine] |
| 19.2 µM | – | CCOC(=O)c1cc2c(ccn2-c2ccc(F)cc2)n1CC(=O)NC(C)(C)C [4-[2-(tert-butylamino)-2-keto-ethyl]-1-(4-fluorophenyl)pyrrolo[3,2-b]pyrrole-5-carboxylic acid ethyl ester] |
| 0.642 µM | – | COc1ccc(-c2cc(CCCC(=O)NCCc3ccccc3)no2)cc1 [4-[5-(4-methoxyphenyl)-1,2-oxazol-3-yl]-N-(2-phenylethyl)butanamide] |
| 27.3 µM | – | COCCN1C(=O)/C(=C/c2ccc(OCc3ccc(C(=O)O)cc3)c(OC)c2)S/C1=N/c1ccccc1 [4-[(2-methoxy-4-{[3-(2-methoxyethyl)-4-oxo-2-(phenylimino)-1,3-thiazolidin-5-ylidene]methyl}phenoxy)methyl]benzoic acid] |
| 9.41 µM | – | Cc1n[nH]c(O)c1C(c1ccc(-c2ccc(F)cc2)o1)c1c(C)n[nH]c1O [4-[[5-(4-fluorophenyl)furan-2-yl]-(3-methyl-5-oxo-1,2-dihydropyrazol-4-yl)methyl]-5-methyl-1,2-dihydropyrazol-3-one] |

More lines, now with the values behind:

| SMILES | EC50 | EC50 [1] |
| --- | --- | --- |
| O=C(NCCCCc1ccccc1)C1CC(c2ccccc2[N+](=O)[O-])=NO1 (centres undefined) [3-(2-nitrophenyl)-N-(4-phenylbutyl)-2-isoxazoline-5-carboxamide] | 5.52 µM | – |
| O=C(CCSCCc1ccccn1)Nc1ccc(Cc2ccncc2)cc1 [3-(2-pyridin-2-ylethylsulfanyl)-N-[4-(pyridin-4-ylmethyl)phenyl]propanamide] | 72.4 µM | – |
| O=S(=O)(NC1CCCC1)c1cccc(S(=O)(=O)N2CCC(n3nnc4ccccc43)CC2)c1 [3-(4-Benzotriazol-1-yl-piperidine-1-sulfonyl)-N-cyclopentyl-benzenesulfonamide] | 4.05 µM | – |
| CCN(CC)c1ccc2c(C)c(-c3ccc(N)cc3)c(=O)oc2c1 [3-(4-aminophenyl)-7-(diethylamino)-4-methyl-1-benzopyran-2-one] | 1.15 µM | – |
| CN1c2ccccc2Oc2nnc(N3CCN(Cc4ccccc4)CC3)cc21 [3-(4-benzylpiperazin-1-yl)-5-methylpyridazino[3,4-b][1,4]benzoxazine] | 1.88 µM | – |
| CCOc1ccc(C(CC(=O)O)NC(=O)C(Sc2ccccc2)c2ccccc2)cc1 (centres undefined) [3-(4-ethoxyphenyl)-3-[(2-phenyl-2-phenylsulfanyl-ethanoyl)amino]propanoic acid] | 23.3 µM | – |
| CS/C(=N\Cc1ccc(F)cc1)NS(=O)(=O)c1cccs1 [3-(4-fluorobenzyl)-2-methyl-1-(2-thienylsulfonyl)isothiourea] | 0.498 µM | – |
| O=C(Cn1cnc2c(nnn2Cc2ccc(F)cc2)c1=O)N1CCN(c2ccccc2)CC1 [3-(4-fluorobenzyl)-6-[2-keto-2-(4-phenylpiperazino)ethyl]triazolo[4,5-d]pyrimidin-7-one] | 1.65 µM | – |
| Cc1ccc(OCCC(=O)OCC(=O)N2c3ccccc3CC2C)cc1 (centres undefined) [3-(4-methylphenoxy)propanoic acid [2-(2-methyl-2,3-dihydroindol-1-yl)-2-oxoethyl] ester] | 2.68 µM | – |
| COc1cc(OC)c(C2=NOC(C(=O)NCCc3ccccc3)C2)cc1Cl (centres undefined) [3-(5-chloranyl-2,4-dimethoxy-phenyl)-N-(2-phenylethyl)-4,5-dihydro-1,2-oxazole-5-carboxamide] | 47.1 µM | – |
| CCOc1ccc2nc(Sc3cc(O)n(-c4cccc(OC)c4)c3O)sc2c1 [3-(6-Ethoxy-benzothiazol-2-ylsulfanyl)-1-(3-methoxy-phenyl)-pyrrolidine-2,5-dione] | 11 µM | – |
| COC(=O)c1sccc1NC(=S)OC [3-(methoxycarbothioylamino)thiophene-2-carboxylic acid methyl ester] | 1.48 µM | – |
| Cc1nn(-c2ccccc2)c2sc(C(=O)N(Cc3ccco3)C(C)C(=O)NC(C)(C)C)cc12 (centres undefined) [3-Methyl-1-phenyl-1H-thieno[2,3-c]pyrazole-5-carboxylic acid (1-tert-butylcarbamoyl-ethyl)-furan-2-ylmethyl-amide] | – | 33.2 µM |
| O=C(Nc1ccc(Cc2ccncc2)cc1)c1cccc([N+](=O)[O-])c1 [3-Nitro-N-(4-pyridin-4-ylmethyl-phenyl)-benzamide] | 4.96 µM | – |
| O=C(O)CCn1c(SCc2cccc3ccccc23)nc2ccccc21 [3-[2-(1-naphthalenylmethylthio)-1-benzimidazolyl]propanoic acid] | 0.677 µM | – |
| O=C(O)CCc1cc(I)c(Oc2ccc(O)c(I)c2)c(I)c1 [3-[4-(4-hydroxy-3-iodophenoxy)-3,5-diiodophenyl]propanoic acid] | 4.25 µM | – |

— BindingDB's records for doi:10.7270/Q2M32T6M (Vanderbilt Screening Center for GPCRs, Ion Channels and …, 2009)
